The values that follow come from ChEMBL document CHEMBL3351729, “Discovery of indanone derivatives as multi-target-directed ligands against Alzheimer's disease” (Eur J Med Chem, 2014).

The source made the active and inactive calls. No cut-off for these calls is given here.

For orientation: IC50 means the concentration needed to halve the response being measured. As a reminder, the inhibition is how much of the control response was suppressed.

Assay [1] deals with Acetylcholinesterase (Electrophorus electricus, UniProt O42275). In words: Inhibition of electric eel AChE preincubated for 15 mins by Ellman's method.
The target of assay [2] is Amyloid-beta precursor protein (Homo sapiens) (UniProt P05067). Description: Inhibition of amyloid beta (1-42) self-mediated aggregation (unknown origin) at 20 uM after 48 hrs by thioflavin T fluorescence method.
Another assay concerns the target Butyrylcholinesterase (Equus caballus, UniProt Q9N1N9).
Assay [3] deals with Acetylcholinesterase (Homo sapiens, UniProt P22303). In words: Inhibition of human erythrocyte AChE preincubated for 15 mins by Ellman's method.
Assay [4] deals with Amyloid-beta precursor protein (Homo sapiens) (UniProt P05067). In words: Inhibition of amyloid beta (1-42) (unknown origin) fibril formation at 20 uM after 24 hrs by transmission electron microscopy.
Assay [5] has the same target. Description: Disaggregation of amyloid beta (1-42) fibrils (unknown origin) at 20 uM after 24 hrs by thioflavin T fluorescence method.
For assay [6] the target is unchanged. In words: Disaggregation of amyloid beta (1-42) fibrils (unknown origin) at 20 uM after 24 hrs by transmission electron microscopy.

Sequence of Amyloid-beta precursor protein (Homo sapiens) (P05067 whole entry): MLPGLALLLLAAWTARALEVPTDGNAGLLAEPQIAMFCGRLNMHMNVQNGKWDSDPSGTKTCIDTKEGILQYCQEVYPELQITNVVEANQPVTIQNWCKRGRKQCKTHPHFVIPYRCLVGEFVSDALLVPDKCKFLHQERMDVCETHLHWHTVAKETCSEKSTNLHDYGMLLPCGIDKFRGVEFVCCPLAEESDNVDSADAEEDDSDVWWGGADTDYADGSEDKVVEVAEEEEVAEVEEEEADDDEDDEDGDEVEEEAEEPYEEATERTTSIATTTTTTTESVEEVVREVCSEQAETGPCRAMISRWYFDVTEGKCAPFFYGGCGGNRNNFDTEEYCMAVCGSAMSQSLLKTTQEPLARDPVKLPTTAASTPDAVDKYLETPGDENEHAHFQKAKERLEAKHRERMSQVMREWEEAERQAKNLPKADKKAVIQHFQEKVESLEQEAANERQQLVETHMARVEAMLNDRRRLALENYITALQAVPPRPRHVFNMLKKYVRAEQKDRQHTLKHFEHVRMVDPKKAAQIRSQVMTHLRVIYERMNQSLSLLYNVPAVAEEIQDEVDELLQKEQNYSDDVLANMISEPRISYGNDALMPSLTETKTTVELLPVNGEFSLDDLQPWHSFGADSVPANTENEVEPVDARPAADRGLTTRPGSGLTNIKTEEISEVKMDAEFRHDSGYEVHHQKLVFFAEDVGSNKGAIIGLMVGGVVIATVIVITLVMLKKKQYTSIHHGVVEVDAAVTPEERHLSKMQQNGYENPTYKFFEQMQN
Sequence of Acetylcholinesterase (Electrophorus electricus, UniProt O42275) (O42275 whole entry): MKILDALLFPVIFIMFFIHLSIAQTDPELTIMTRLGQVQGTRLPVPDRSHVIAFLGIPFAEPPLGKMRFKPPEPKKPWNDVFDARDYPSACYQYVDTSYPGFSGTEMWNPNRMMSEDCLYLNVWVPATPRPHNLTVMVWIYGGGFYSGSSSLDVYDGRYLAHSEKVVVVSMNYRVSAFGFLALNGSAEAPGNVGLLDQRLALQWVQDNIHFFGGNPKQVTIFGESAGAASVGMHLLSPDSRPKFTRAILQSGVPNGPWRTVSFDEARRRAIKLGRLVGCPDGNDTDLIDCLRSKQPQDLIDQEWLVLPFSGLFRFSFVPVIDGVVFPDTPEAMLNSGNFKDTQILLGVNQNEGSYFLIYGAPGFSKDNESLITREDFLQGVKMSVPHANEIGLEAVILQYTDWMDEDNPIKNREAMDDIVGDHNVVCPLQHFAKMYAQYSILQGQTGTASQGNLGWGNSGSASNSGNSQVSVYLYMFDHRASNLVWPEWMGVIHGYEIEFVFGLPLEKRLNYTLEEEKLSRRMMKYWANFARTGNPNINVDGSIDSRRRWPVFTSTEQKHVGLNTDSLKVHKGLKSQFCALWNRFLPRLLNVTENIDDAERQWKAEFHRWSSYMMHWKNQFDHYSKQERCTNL
Sequence of Acetylcholinesterase (Homo sapiens, UniProt P22303) (P22303 whole entry): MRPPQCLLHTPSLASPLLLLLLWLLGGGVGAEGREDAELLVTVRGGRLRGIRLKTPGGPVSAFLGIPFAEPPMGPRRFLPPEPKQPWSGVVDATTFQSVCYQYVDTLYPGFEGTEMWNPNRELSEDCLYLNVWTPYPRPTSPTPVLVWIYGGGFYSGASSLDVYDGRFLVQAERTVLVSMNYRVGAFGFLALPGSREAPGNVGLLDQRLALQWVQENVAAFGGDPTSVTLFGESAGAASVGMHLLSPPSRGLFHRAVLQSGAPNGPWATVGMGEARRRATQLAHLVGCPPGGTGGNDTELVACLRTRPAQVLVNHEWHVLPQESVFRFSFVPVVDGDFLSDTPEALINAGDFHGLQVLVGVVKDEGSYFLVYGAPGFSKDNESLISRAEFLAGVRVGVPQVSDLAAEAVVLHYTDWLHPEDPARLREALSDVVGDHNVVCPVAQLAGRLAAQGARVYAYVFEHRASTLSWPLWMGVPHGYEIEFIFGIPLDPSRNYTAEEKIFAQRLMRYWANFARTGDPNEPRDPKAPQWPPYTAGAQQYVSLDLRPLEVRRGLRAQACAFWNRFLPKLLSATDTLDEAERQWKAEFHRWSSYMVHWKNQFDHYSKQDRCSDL
Sequence of Butyrylcholinesterase (Q9N1N9 whole entry): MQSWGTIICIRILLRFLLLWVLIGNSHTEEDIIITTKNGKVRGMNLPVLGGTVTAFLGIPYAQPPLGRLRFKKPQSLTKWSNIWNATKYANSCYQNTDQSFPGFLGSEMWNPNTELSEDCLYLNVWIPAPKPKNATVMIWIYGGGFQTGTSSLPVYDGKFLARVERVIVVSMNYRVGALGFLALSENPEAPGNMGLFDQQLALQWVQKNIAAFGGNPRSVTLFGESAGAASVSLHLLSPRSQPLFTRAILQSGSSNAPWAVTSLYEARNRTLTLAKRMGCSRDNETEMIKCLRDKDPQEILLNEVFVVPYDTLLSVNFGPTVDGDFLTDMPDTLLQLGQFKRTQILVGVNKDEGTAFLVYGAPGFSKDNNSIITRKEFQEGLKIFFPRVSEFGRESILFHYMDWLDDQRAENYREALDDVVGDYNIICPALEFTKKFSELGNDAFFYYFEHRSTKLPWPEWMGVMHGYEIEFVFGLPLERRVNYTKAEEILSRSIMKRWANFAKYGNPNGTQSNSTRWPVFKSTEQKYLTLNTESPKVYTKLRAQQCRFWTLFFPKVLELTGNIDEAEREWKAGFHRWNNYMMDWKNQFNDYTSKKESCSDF
Description for Butyrylcholinesterase: Inhibition of equine BChE preincubated for 15 mins by Ellman's method

In the case of `COc1cc2c(cc1OCCNC1CCCCC1)C(=O)/C(=C/c1ccc(N(C)C)cc1)C2`, the IC50 amounted to 102 nM at Acetylcholinesterase [1] and 363 nM against Butyrylcholinesterase. In assay [2], this molecule had an inhibition of 84.3%.
With `CCCN(C)c1ccc(/C=C2\Cc3cc(OC)c(OCCN4CCCCC4)cc3C2=O)cc1`, the IC50 came out at 18.6 nM on Acetylcholinesterase [1], 390 nM against Acetylcholinesterase [3] and 1420 nM against Butyrylcholinesterase. In assay [2], this molecule displayed an inhibition of 83.8%. Besides, the inhibition result in assay [4] was “Active”. Moreover, the Activity in assay [5] was determined as 73.8%. For the same molecule, the outcome in assay [6] was Active.
Regarding `CCCN(CCC)c1ccc(/C=C2\Cc3cc(OC)c(OCCN4CCCCC4)cc3C2=O)cc1`, the half-inhibitory concentration (IC50) against Acetylcholinesterase [1] stood at 14.6 nM; on Acetylcholinesterase [3] it was 954 nM; at Butyrylcholinesterase it was 1770 nM.
Regarding `CCN(CC)c1ccc(/C=C2\Cc3cc(OC)c(OCCCN4CCCCC4)cc3C2=O)cc1`, the concentration for half-maximal inhibition (IC50) against Acetylcholinesterase [1] was 371 nM; on Butyrylcholinesterase, 2820 nM.
Take `CCN(CC)c1ccc(/C=C2\Cc3cc(OC)c(OCCCCCN4CCCCC4)cc3C2=O)cc1`: the concentration for half-maximal inhibition (IC50) came out at 5730 nM at Acetylcholinesterase [1] and 2840 nM at Butyrylcholinesterase.
As to `COc1cc2c(cc1OCCCNC1CCCCC1)C(=O)/C(=C/c1ccc(N(C)C)cc1)C2`, the figures for the IC50 at Acetylcholinesterase [1] and against Butyrylcholinesterase were 1540 nM and 1330 nM, respectively.
With `CCN(CC)c1ccc(/C=C2\Cc3cc(OC)c(OCCN4CCCCC4)cc3C2=O)cc1`, the half-maximal inhibitory concentration (IC50) was 14.8 nM against Acetylcholinesterase [1], 536 nM against Acetylcholinesterase [3] and 1380 nM against Butyrylcholinesterase. The same molecule came in with an inhibition in assay [2] of 85.5%. Also, the inhibition result in assay [4] was “Active”. In addition, the Activity in assay [5] was found to be 65%. Also, in assay [6], the outcome was Active.
With `COc1ccc(/C=C2\Cc3cc(OC)c(OCCN4CCCCC4)cc3C2=O)cc1`, the IC50 at Acetylcholinesterase [1] stood at 14.8 nM; on Butyrylcholinesterase, 3210 nM. Besides, the inhibition entry in assay [2] is “inactive”.
On to `CNc1ccc(/C=C2\Cc3cc(OC)c(OCCN4CCCCC4)cc3C2=O)cc1`, for which the IC50 against Acetylcholinesterase [1] amounted to 16.8 nM; against Acetylcholinesterase [3] it was 301 nM; against Butyrylcholinesterase it was 1640 nM.
For the molecule `COc1cc2c(cc1OCCN1CCCCC1)C(=O)/C(=C/c1ccc(N(C)C)cc1)C2`, the results for the IC50 on Acetylcholinesterase [1], at Acetylcholinesterase [3] and at Butyrylcholinesterase were 16.5 nM, 285 nM and 1490 nM, respectively.
For `COc1cc2c(cc1OCCCCNC1CCCCC1)C(=O)/C(=C/c1ccc(N(C)C)cc1)C2`, the concentration for half-maximal inhibition (IC50) at Acetylcholinesterase [1] was found to be 9180 nM; against Butyrylcholinesterase, 1130 nM.
For the molecule `COc1cc2c(cc1OCCCCCN1CCCCC1)C(=O)/C(=C/c1ccc(N(C)C)cc1)C2`, the half-maximal inhibitory concentration (IC50) against Acetylcholinesterase [1] stood at 1030 nM; on Butyrylcholinesterase, 2440 nM.
Regarding `COc1cc2c(cc1OCCCN1CCCCC1)C(=O)/C(=C/c1ccc(N(C)C)cc1)C2`, the 50% inhibitory concentration (IC50) on Acetylcholinesterase [1] turned out to be 330 nM; on Butyrylcholinesterase it was 1460 nM.
Turning to `CCN(C)c1ccc(/C=C2\Cc3cc(OC)c(OCCN4CCCCC4)cc3C2=O)cc1`, the concentration for half-maximal inhibition (IC50) came out at 25.5 nM against Acetylcholinesterase [1], 426 nM on Acetylcholinesterase [3] and 1270 nM at Butyrylcholinesterase. Further, the inhibition in assay [2] stood at 85.2%.
